≈ marks a conversion by molar mass, not a printed value. Square brackets hold non-standard residues; d marks the D form. Peptide text beside a SMILES is read from it. * marks the point of attachment. Stearoyl = CCCCCCCCCCCCCCCCCC(=O)*; Palmitoyl = CCCCCCCCCCCCCCCC(=O)*; Myristoyl = CCCCCCCCCCCCCC(=O)*; Orn = NCCC[CH](N)C(=O)O
Experiments:
[1] = system: Staphylococcus aureus; test: Antibacterial activity against clinical isolates of methicillin-resistant Staphylococcus aureus PGI/DML03149 after overnight incubation by microdilution broth assay; assay type: functional
[2] = system: Acinetobacter baumannii; test: Antibacterial activity against clinical isolates of imipenem-resistant Acinetobacter baumannii GMCH/R-Imi003 after overnight incubation by microdilution broth assay; assay type: functional
[3] = system: Enterococcus faecium; test: Antibacterial activity against clinical isolates of Enterococcus faecium GMCH/B0102 after overnight incubation by microdilution broth assay; assay type: functional
[4] = Cytotoxicity against human HaCaT cells assessed as cell viability at 500 ug/ml after 18 hrs by MTT assay; assay type: cell-based; conditions: read-out: Activity
[5] = system: Pseudomonas aeruginosa; test: Antibacterial activity against clinical isolates of Pseudomonas aeruginosa PGI/DML02084 after overnight incubation by microdilution broth assay; assay type: functional
[6] = system: Staphylococcus aureus; test: Antibacterial activity against clinical isolates of Staphylococcus aureus PGI/DML03054 after overnight incubation by microdilution broth assay; assay type: functional
[7] = system: Klebsiella pneumoniae; test: Antibacterial activity against clinical isolates of Klebsiella pneumoniae GMCH/B0127 after overnight incubation by microdilution broth assay; assay type: functional
[8] = system: Streptococcus pneumoniae; test: Antibacterial activity against clinical isolates of Streptococcus pneumoniae PGI/DML02468 after overnight incubation by microdilution broth assay; assay type: functional
[9] = system: Haemophilus influenzae; test: Antibacterial activity against clinical isolates of ciprofloxacin-resistant Haemophilus influenzae PGI/DML01744 after overnight incubation by microdilution broth assay; assay type: functional
[10] = system: Escherichia coli; test: Antibacterial activity against clinical isolates of imipenem-resistant Escherichia coli PGI/DML02292 after overnight incubation by microdilution broth assay; assay type: functional
[11] = system: Staphylococcus epidermidis; test: Antibacterial activity against clinical isolates of ampicillin-resistant Staphylococcus epidermidis GMCH/R-Amp008 after overnight incubation by microdilution broth assay; assay type: functional
[12] = system: Streptococcus pneumoniae; test: Antibacterial activity against clinical isolates of erythromycin-resistant Streptococcus pneumoniae PGI/DML02213 after overnight incubation by microdilution broth assay; assay type: functional
[13] = Cytotoxicity against human HaCaT cells assessed as cell viability at 100 ug/ml after 18 hrs by MTT assay; assay type: cell-based; conditions: read-out: Activity
[14] = system: Acinetobacter baumannii; test: Antibacterial activity against clinical isolates of Acinetobacter baumannii GMCH/B0083 after overnight incubation by microdilution broth assay; assay type: functional
[15] = system: Pseudomonas aeruginosa; test: Antibacterial activity against clinical isolates of streptomycin-resistant Pseudomonas aeruginosa PGI/DML01991 after overnight incubation by microdilution broth assay; assay type: functional
[16] = system: Enterococcus faecalis; test: Antibacterial activity against clinical isolates of gentamicin-resistant Enterococcus faecalis GMCH/R-Gen011 after overnight incubation by microdilution broth assay; assay type: functional
[17] = system: Klebsiella pneumoniae; test: Antibacterial activity against clinical isolates of kanamycin-resistant Klebsiella pneumoniae GMCH/R-Kan006 after overnight incubation by microdilution broth assay; assay type: functional
[18] = system: Staphylococcus epidermidis; test: Antibacterial activity against clinical isolates of Staphylococcus epidermidis GMCH/B0057 after overnight incubation by microdilution broth assay; assay type: functional
[19] = system: Escherichia coli; test: Antibacterial activity against clinical isolates of Escherichia coli PGI/DML02250 after overnight incubation by microdilution broth assay; assay type: functional
[20] = system: Enterococcus faecalis; test: Antibacterial activity against clinical isolates of Enterococcus faecalis GMCH/B0091 after overnight incubation by microdilution broth assay; assay type: functional
[21] = system: Haemophilus influenzae; test: Antibacterial activity against clinical isolates of Haemophilus influenzae PGI/DML01751 after overnight incubation by microdilution broth assay; assay type: functional
[22] = system: Enterococcus faecium; test: Antibacterial activity against clinical isolates of penicillin-resistant Enterococcus faecium GMCH/R-Pen003 after overnight incubation by microdilution broth assay; assay type: functional

SMILES	MIC [1] [µg/mL]	MIC [2] [µg/mL]	MIC [3] [µg/mL]	viability at 18 h, 500 ug/ml [4] [%]	MIC [5] [µg/mL]	MIC [6] [µg/mL]	MIC [7] [µg/mL]	MIC [8] [µg/mL]	MIC [9] [µg/mL]	MIC [10] [µg/mL]	MIC [11] [µg/mL]	MIC [12] [µg/mL]	viability at 18 h, 100 ug/ml [13] [%]	MIC [14] [µg/mL]	MIC [15] [µg/mL]	MIC [16] [µg/mL]	MIC [17] [µg/mL]	MIC [18] [µg/mL]	MIC [20] [µg/mL]	MIC [22] [µg/mL]	other results
CCCCCCCCCCCCCCCCCC(=O)NC(CCCN)C(=O)NC(CCCN)C(=O)NC(CCCN)C(=O)NC(CCCN)C(=O)NC(CCCN)C(N)=O (configuration not stated) (Stearoyl-[Orn][Orn][Orn][Orn][Orn]-NH2; configuration not given here)	10.5 (≈ 12.3 µM)	7.5 (≈ 8.78 µM)	6.2 (≈ 7.26 µM)	> 80	2.5 (≈ 2.93 µM)	6.2 (≈ 7.26 µM)	4 (≈ 4.68 µM)	2.5 (≈ 2.93 µM)	15 (≈ 17.6 µM)	7.5 (≈ 8.78 µM)	10.5 (≈ 12.3 µM)	10 (≈ 11.7 µM)	> 80	10 (≈ 11.7 µM)	5 (≈ 5.85 µM)	15 (≈ 17.6 µM)	12.5 (≈ 14.6 µM)	4.5 (≈ 5.27 µM)	4.5 (≈ 5.27 µM)	12.5 (≈ 14.6 µM)	MIC [19]: 5 µg/mL (≈ 5.85 µM); MIC [21]: 10 µg/mL (≈ 11.7 µM)
CCCCCCCCCCCCCCCC(=O)NC(CCCN)C(=O)NC(CCCN)C(=O)NC(CCCN)C(=O)NC(CCCN)C(N)=O (configuration not stated) (Palmitoyl-[Orn][Orn][Orn][Orn]-NH2; configuration not given here)	4.5 (≈ 6.32 µM)	10 (≈ 14 µM)	3.5 (≈ 4.92 µM)	> 80	3 (≈ 4.21 µM)	3.1 (≈ 4.35 µM)	2 (≈ 2.81 µM)	2.5 (≈ 3.51 µM)	12.5 (≈ 17.6 µM)	12.5 (≈ 17.6 µM)	2 (≈ 2.81 µM)	10.5 (≈ 14.7 µM)	> 80	6.5 (≈ 9.13 µM)	6.25 (≈ 8.78 µM)	7.5 (≈ 10.5 µM)	5.5 (≈ 7.72 µM)	2.5 (≈ 3.51 µM)	3.5 (≈ 4.92 µM)	3.5 (≈ 4.92 µM)	MIC [19]: 2 µg/mL (≈ 2.81 µM); MIC [21]: 7.5 µg/mL (≈ 10.5 µM)
CCCCCCCCCCCCCCCC(=O)NC(CCCN)C(=O)NC(CCCN)C(=O)NC(CCCN)C(=O)NC(CCCN)C(=O)NC(CCCN)C(N)=O (configuration not stated) (Palmitoyl-[Orn][Orn][Orn][Orn][Orn]-NH2; configuration not given here)	10 (≈ 12.1 µM)	9.5 (≈ 11.5 µM)	3 (≈ 3.63 µM)	> 80	2 (≈ 2.42 µM)	7.5 (≈ 9.08 µM)	2.5 (≈ 3.03 µM)	3.1 (≈ 3.75 µM)	12.5 (≈ 15.1 µM)	5 (≈ 6.05 µM)	7.5 (≈ 9.08 µM)	7.5 (≈ 9.08 µM)	> 80	12.5 (≈ 15.1 µM)	6.5 (≈ 7.87 µM)	12.5 (≈ 15.1 µM)	10 (≈ 12.1 µM)	3.1 (≈ 3.75 µM)	2 (≈ 2.42 µM)	7.5 (≈ 9.08 µM)	MIC [19]: 1.5 µg/mL (≈ 1.82 µM); MIC [21]: 10 µg/mL (≈ 12.1 µM)
CCCCCCCCCCCCCCCC(=O)NC(CCCN)C(=O)NC(CCCN)C(=O)NC(CCCN)C(N)=O (configuration not stated)	4.5 (≈ 7.53 µM)	5.5 (≈ 9.2 µM)	3 (≈ 5.02 µM)	> 80	2.5 (≈ 4.18 µM)	5 (≈ 8.36 µM)	3.5 (≈ 5.85 µM)	3.1 (≈ 5.18 µM)	5.5 (≈ 9.2 µM)	6.25 (≈ 10.5 µM)	5.5 (≈ 9.2 µM)	3.5 (≈ 5.85 µM)	> 80	4 (≈ 6.69 µM)	3.1 (≈ 5.18 µM)	5 (≈ 8.36 µM)	3.1 (≈ 5.18 µM)	4 (≈ 6.69 µM)	3.1 (≈ 5.18 µM)	5 (≈ 8.36 µM)	MIC [19]: 5.5 µg/mL (≈ 9.2 µM); MIC [21]: 5 µg/mL (≈ 8.36 µM)
CCCCCCCCCC(=O)N[C@@H](Cc1c[nH]c2ccccc12)C(=O)N[C@H](CC(N)=O)C(=O)N[C@@H](CC(=O)O)C(=O)N[C@@H]1C(=O)NCC(=O)N[C@@H](CCCN)C(=O)N[C@@H](CC(=O)O)C(=O)N[C@H](C)C(=O)N[C@@H](CC(=O)O)C(=O)NCC(=O)N[C@H](CO)C(=O)N[C@@H]([C@H](C)CC(=O)O)C(=O)N[C@@H](CC(=O)c2ccccc2N)C(=O)O[C@@H]1C	1.25 (≈ 0.771 µM)		2 (≈ 1.23 µM)			0.7 (≈ 0.432 µM)		1.25 (≈ 0.771 µM)			1.5 (≈ 0.926 µM)	1.5 (≈ 0.926 µM)				1.5 (≈ 0.926 µM)		0.5 (≈ 0.309 µM)	1.75 (≈ 1.08 µM)	2.5 (≈ 1.54 µM)	
CCCCCCCCCCCCCC(=O)NC(CCCN)C(=O)NC(CCCN)C(=O)NC(CCCN)C(=O)NC(CCCN)C(=O)NC(CCCN)C(N)=O (configuration not stated) (Myristoyl-[Orn][Orn][Orn][Orn][Orn]-NH2; configuration not given here)	12.5 (≈ 15.7 µM)	6.5 (≈ 8.14 µM)	3.1 (≈ 3.88 µM)	> 80	1.5 (≈ 1.88 µM)	10 (≈ 12.5 µM)	6.2 (≈ 7.77 µM)	3.5 (≈ 4.39 µM)	15.5 (≈ 19.4 µM)	6.25 (≈ 7.83 µM)	12.5 (≈ 15.7 µM)	12.5 (≈ 15.7 µM)	> 80	8.25 (≈ 10.3 µM)	4.25 (≈ 5.32 µM)	10.5 (≈ 13.2 µM)	7.5 (≈ 9.4 µM)	7.5 (≈ 9.4 µM)	1.5 (≈ 1.88 µM)	6.21 (≈ 7.78 µM)	MIC [19]: 2.5 µg/mL (≈ 3.13 µM); MIC [21]: 12.5 µg/mL (≈ 15.7 µM)
CCCCCCCCCCCCCC(=O)NC(CCCN)C(=O)NC(CCCN)C(=O)NC(CCCN)C(=O)NC(CCCN)C(N)=O (configuration not stated) (Myristoyl-[Orn][Orn][Orn][Orn]-NH2; configuration not given here)	5 (≈ 7.31 µM)	5.5 (≈ 8.04 µM)	4 (≈ 5.85 µM)	> 80	3.1 (≈ 4.53 µM)	4.5 (≈ 6.58 µM)	4.5 (≈ 6.58 µM)	5.5 (≈ 8.04 µM)	10 (≈ 14.6 µM)	10 (≈ 14.6 µM)	4.25 (≈ 6.21 µM)	7.5 (≈ 11 µM)	> 80	5 (≈ 7.31 µM)	3 (≈ 4.39 µM)	3.5 (≈ 5.12 µM)	6.25 (≈ 9.14 µM)	3.5 (≈ 5.12 µM)	2 (≈ 2.92 µM)	5.5 (≈ 8.04 µM)	MIC [19]: 2.5 µg/mL (≈ 3.66 µM); MIC [21]: 12.5 µg/mL (≈ 18.3 µM)

Reference: ChEMBL document CHEMBL3352151, “In vitro and in vivo antibacterial evaluation and mechanistic study of ornithine based small cationic lipopeptides against antibiotic resistant clinical isolates” (Eur J Med Chem, 2014)
